Laboratory results: US20230002393A1, “CDK KINASE INHIBITOR” (BEIJING BENICALL BIOTECH CO., LTD., priority 2019, published 2023)
pIC50: −log10 of the molar value.

Columns and labels:
[1] = test system: MCF-7 cells; assay: Cell viability assay, MCF-7 cells (CellTiter-Glo, 168 h); assay type: cell-based; settings: Homo sapiens, MCF7
Protocol: An in vitro cell viability assay was conducted using some Example compounds following the steps below:
1. After recovery, MCF-7 cells (obtained from the Shanghai Cell Bank of the Chinese Academy of Sciences) were cultured at 37° C., 5% CO2, and 95% humidity.
2. 8 compound solutions at different concentrations were prepared for each Example compound. 50 μL of the compound solution at each concentration was added to a 96-well black plate.
3. The cell concentration was adjusted to about 30,000 cells/mL. 100 μL of the cell suspension was added to the 96-well plate, and mixed well to a final cell density of about 3,000 cells/well.
4. The 96-well plate was incubated at 37° C., 5% CO2, and 95% humidity for 168 h, i.e., 7 days.
5. The cell survival rate was measured by the method of CellTiter-Glo® Luminescent Cell Viability Assay (Promega, Cat #G7572). The fluorescence data were read on a microplate reader (EnVision™, a multi-function microplate detector, PerkinElmer).
6. The obtained fluorescence data were analyzed using the GraphPad Prism software. The cell survival rate was calculated for each Example compound at each concentration, and the IC50 interval of each Example compound was determined.

[2] = molecular target: T1, CDK6/CyclinD1 (Homo sapiens, UniProt Q00534); assay: In vitro cell-free CDK6/CyclinD1 kinase activity assay (TR-FRET); assay type: biochemical; settings: ATP at Km
T1 construct: purchased Carna 04-114
Protocol: It should be noted that the assay can also be conducted by a similar method. The assay steps in this Test Example are as follows:
The CDK6/CyclinD1 kinase activity was determined using a time-resolved fluorescence resonance energy transfer (TR-FRET) method. Measurements were performed in a reaction volume of 20 μL using 384-well assay plates. […] The reaction was stopped by adding a mixture of a peptide antibody (trade name: Cisbio, product No. 64CUSKAY) and Sa-XL665 (trade name: Cisbio, product No. 610SAXLB) diluted in HTRF KinEASE detection buffer (trade name: Cisbio, product No. 62SDBRDF, containing EDTA). After the mixture was incubated for 1 hour at room temperature, the plate was read. The TR-FRET signal was measured on a multimode plate reader (EnVision™, a multi-function microplate detector, PerkinElmer) at an excitation wavelength (λEx) of 330 nm and detection wavelengths (λEm) of 615 and 665 nm. The activity was determined by the ratio of fluorescence at 665 nm to that at 615 nm. For each compound, the enzyme activities of different concentrations of the compound were measured to determine IC50. The negative control contained no inhibitor. Two no-enzyme controls were used to determine baseline fluorescence levels. IC50 was obtained by fitting using the GraphPad 6.02 software.
8-10 concentrations were prepared for each compound, and formulated in DMSO. The stock concentration was 200× the working concentration. For example, if the working concentration was 100 nM, the corresponding concentration of the formulated stock solution was 20 μM.
In the analysis of in vitro inhibitory activity on CDK kinase, the IC50 value of each of the Example compounds and Reference Example compounds was determined.

T1 sequence (Q00534 whole entry): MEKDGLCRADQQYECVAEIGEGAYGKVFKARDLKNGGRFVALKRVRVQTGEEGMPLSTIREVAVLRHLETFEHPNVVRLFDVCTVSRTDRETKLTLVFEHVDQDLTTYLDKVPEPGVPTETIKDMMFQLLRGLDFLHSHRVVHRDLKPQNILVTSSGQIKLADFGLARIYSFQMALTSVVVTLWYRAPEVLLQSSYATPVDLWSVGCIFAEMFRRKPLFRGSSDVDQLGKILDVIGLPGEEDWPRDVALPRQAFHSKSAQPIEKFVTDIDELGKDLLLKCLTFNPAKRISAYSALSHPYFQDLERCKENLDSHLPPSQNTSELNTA
T1 sequence (P24385 whole entry partner): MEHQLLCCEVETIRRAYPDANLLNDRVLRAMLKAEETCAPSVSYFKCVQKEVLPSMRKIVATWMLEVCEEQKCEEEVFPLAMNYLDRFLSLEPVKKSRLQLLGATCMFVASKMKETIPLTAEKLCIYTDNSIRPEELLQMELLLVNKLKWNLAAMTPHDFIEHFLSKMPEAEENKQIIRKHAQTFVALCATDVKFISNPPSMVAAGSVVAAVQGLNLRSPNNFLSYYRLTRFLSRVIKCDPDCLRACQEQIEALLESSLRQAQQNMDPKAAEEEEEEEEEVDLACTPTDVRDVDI

| Compound | pIC50 [1] | pIC50 [2] |
| --- | --- | --- |
| CN(C)C(=O)c1cc2cnc(Nc3ccc(N4CC5(CNC5)C4)cn3)nn2c1C1=CCCC1 [Example 40] | > 6.30 | > 7.00 |
| Cn1cc(-c2cc3cnc(Nc4ccc(N5CCNCC5)cn4)nn3c2)cn1 [Example 81] | 5.00 to 5.60 | 6.00 to 7.00 |
| CN(C)C(=O)c1cc2cnc(Nc3ccc(N4CC5(CNC5)C4)cn3)nn2c1-c1ccncc1 [Example 61] |  | > 7.00 |
| CN(C)C(=O)c1cc2cnc(Nc3ccc(N4CCC5(CCNCC5)CC4)cn3)nn2c1C1=CCCC1 [Example 33] | > 6.30 | > 7.00 |
| N#Cc1cc2cnc(Nc3ccc(N4CCNCC4)cn3)nn2c1N1CCCC1 [Example 26] | > 6.30 | > 7.00 |
| CN(C)C(=O)c1cc2cnc(Nc3ccc(N4CC5(CNC5)C4)cn3)nn2c1-c1cnn(C)c1 [Example 66] |  | > 7.00 |
| [2H]C([2H])([2H])N(C(=O)c1cc2cnc(Nc3ccc(N4CCN(C)CC4)cn3)nn2c1C1=CCOCC1)C([2H])([2H])[2H] [Example 119] | > 6.30 | > 7.00 |
| C1=C(c2c(-c3cnco3)cc3cnc(Nc4ccc(N5CCNCC5)cn4)nn23)CCC1 [Example 111] | > 6.30 | > 7.00 |
| CN(C)C(=O)c1cc2cnc(Nc3ccc(N4CCNCC4)cn3)nn2c1-c1ccncc1 [Example 58] | 5.00 to 5.60 | > 7.00 |
| Cn1ccc(-c2cc3cnc(Nc4ccc(N5CCNCC5)cn4)nn3c2C2=CCCC2)cc1=O [Example 80] |  | > 7.00 |
| N#Cc1cc2cnc(Nc3ccc(N4CCNCC4)cc3)nn2c1-c1ccc(F)cc1 [Example 13] | > 6.30 | > 7.00 |
| Cc1noc(C)c1-c1c(-c2cnn(C)c2)c(-c2c(C)noc2C)n2nc(Nc3ccc(N4CCNCC4)cn3)ncc12 [Reference Example 131, reference compound] | < 5.00 | < 5.52 |
| Cc1ncc(-c2cc3cnc(Nc4ccc(N5CCNCC5)cn4)nn3c2C2=CCCC2)cn1 [Example 78] | 5.00 to 5.60 | > 7.00 |
| COCCOc1ccc(-c2c(C(=O)N(C)C)cc3cnc(Nc4ccc(N5CCNC6(CC6)C5)cn4)nn23)cc1 [Example 47] | 5.00 to 5.60 | > 7.00 |
| [2H]C([2H])([2H])N(C(=O)c1cc2cnc(Nc3ccc(N4CCNCC4)cn3)nn2c1C1=CCOCC1)C([2H])([2H])[2H] [Example 122] | > 6.30 | > 7.00 |
| C1=C(c2c(-c3cccs3)cc3cnc(Nc4ccc(N5CCNCC5)cn4)nn23)CCC1 [Example 75] | 5.60 to 6.30 | > 7.00 |
| COc1cc(F)ccc1-c1c(-c2cnn(C)c2)cc2cnc(Nc3ccc(N4CCNCC4)cn3)nn12 [Example 53] | 5.60 to 6.30 | 6.00 to 7.00 |
| CN(C)C(=O)c1cc2cnc(Nc3ccc(N4CCN(C5CC5)CC4)cn3)nn2c1C1=CCCC1 [Example 109] | > 6.30 | > 7.00 |
| CC(C)n1cc(-c2cc3cnc(Nc4ccc(N5CCNCC5)cn4)nn3c2C2=CCCC2)cn1 [Example 87] | > 6.30 | 6.00 to 7.00 |
| COC(=O)c1cc2cnc(Nc3ccc(N4CC5(CNC5)C4)cn3)nn2c1-c1cccc2cccnc12 [Reference Example 133, reference compound] | < 5.00 | < 5.52 |
| [2H]C([2H])([2H])N(C(=O)c1cc2cnc(Nc3ccc(N4CCN(CC)CC4)cn3)nn2c1C1=CCCC1)C([2H])([2H])[2H] [Example 118] | > 6.30 | > 7.00 |
| COc1cc(F)ccc1-c1c(-c2cn[nH]c2)cc2cnc(Nc3ccc(N4CCNCC4)cn3)nn12 [Example 94] | > 6.30 | > 7.00 |
| Cn1cc(-c2cc3cnc(Nc4ccc(N5CCNCC5)cn4)nn3c2N2CCOCC2)cn1 [Example 79] |  | > 7.00 |
| COc1cc(F)ccc1-c1c(C#N)cc2cnc(Nc3ccc(N4CCNCC4)cc3)nn12 [Example 11] | > 6.30 | > 7.00 |
| CN(C)C(=O)c1cc2cnc(Nc3ccc(N4CCC5(CC4)COC5)cn3)nn2c1C1=CCCC1 [Example 38] | > 6.30 | > 7.00 |
| COc1ccc(-c2c(C(=O)N(C)C)cc3cnc(Nc4ccc(N5CCN(C)CC5)cn4)nn23)cc1 [Example 100] | > 6.30 | > 7.00 |

| Compound | pIC50 [1] | pIC50 [2] |
| --- | --- | --- |
| CN(C)C(=O)c1cc2cnc(Nc3ccc(N4CC5(CCNC5)C4)cn3)nn2c1-c1ccncc1 [Example 69] | 5.00 to 5.60 | > 7.00 |
| O=C1CCCN1c1cc2cnc(Nc3ccc(N4CCNCC4)cn3)nn2c1-c1ccc(Cl)cc1 [Example 51] | 5.60 to 6.30 | 6.00 to 7.00 |
| CN(C)C(=O)c1cc2cnc(Nc3ccc(N4CC5(CCNC5)C4)cn3)nn2c1-c1cnn(C)c1 [Example 70] |  | > 7.00 |
| CP(C)(=O)c1ccc(Nc2ncc3cc(C#N)c(Br)n3n2)cc1 [Reference Example 128, reference compound] | < 5.00 | 5.52 to 6.00 |
| CN(C)C(=O)c1cc2cnc(Nc3ccc(N4CC5(CCNC5)C4)cn3)nn2c1-c1ccc(Cl)cc1 [Example 46] | > 6.30 | > 7.00 |
| Cn1cc(-c2cc3cnc(Nc4ccc(N5CCNCC5)cn4)nn3c2Br)cn1 [Example 82] | > 6.30 | 6.00 to 7.00 |
| C1=C(c2c(-c3cncnc3)cc3cnc(Nc4ccc(N5CCNCC5)cn4)nn23)CCC1 [Example 84] | > 6.30 | > 7.00 |
| CN(C)C(=O)c1cc2cnc(Nc3ccc(N4CCNCC4)cn3)nn2c1-c1cccnc1 [Example 36] |  | 6.00 to 7.00 |
| [2H]C([2H])([2H])N1CCN(c2ccc(Nc3ncc4cc(C(=O)N(C([2H])([2H])[2H])C([2H])([2H])[2H])c(-c5ccc(OC)cc5)n4n3)nc2)CC1 [Example 124] | > 6.30 | > 7.00 |
| CN1CCN(c2ccc(Nc3ncc4cc(C(=O)N(C)C)c(C5=CCCC5)n4n3)nc2)CC1 [Example 99] | > 6.30 | > 7.00 |
| CN(C)C(=O)c1cc2cnc(Nc3ccc(N4CCNCC4)cn3)nn2c1-c1ccccc1 [Example 108] | > 6.30 | > 7.00 |
| COc1cc(F)ccc1-c1c(-c2c[nH]nc2C)cc2cnc(Nc3ccc(N4CCNCC4)cn3)nn12 [Example 91] | 5.00 to 5.60 | 6.00 to 7.00 |
| Cc1noc(C)c1-c1cc2cnc(Nc3ccc(N4CCNCC4)cn3)nn2c1C1=CCCC1 [Example 21] | 5.60 to 6.30 | 6.00 to 7.00 |
| Cc1noc(C)c1-c1c(-c2cnn(C)c2)cc2cnc(Nc3ccc(N4CCNCC4)cn3)nn12 [Example 68] | 5.00 to 5.60 | 6.00 to 7.00 |
| [2H]C([2H])([2H])C([2H])([2H])N1CCN(c2ccc(Nc3ncc4cc(C(=O)N(C)C)c(C5=CCCC5)n4n3)nc2)CC1 [Example 104] | > 6.30 | > 7.00 |
| Cn1cc(-c2c(Br)c3cnc(Nc4ccc(N5CCNCC5)cc4)nn3c2Br)cn1 [Example 8] | 5.60 to 6.30 | > 7.00 |
| CN(C)C(=O)c1cc2cnc(Nc3ccc(N4CCC5(CC4)CC5)cn3)nn2c1C1=CCCC1 [Example 35] | 5.60 to 6.30 | 6.00 to 7.00 |
| Cn1cc(-c2c(C3=CCCC3)c3cnc(Nc4ccc(N5CCNCC5)cn4)nn3c2C2=CCCC2)cn1 [Reference Example 130, reference compound] |  | 5.52 to 6.00 |
| CN(C)C(=O)c1cc2cnc(Nc3ccc(N4CCNCC4)cn3)nn2c1-c1cnn(C)c1 [Example 56] |  | 6.00 to 7.00 |
| COc1ccc(-c2c(-c3cnn(C)c3)c(-c3ccc(OC)cc3)n3nc(Nc4ccc(N5CCNCC5)cn4)ncc23)cc1 [Reference Example 129, reference compound] |  | < 5.52 |
| Cn1cc(-c2cc3cnc(Nc4ccc(N5CCNCC5)cn4)nn3c2C2=CCCC2)ncc1=O [Example 77] |  | 6.00 to 7.00 |
| Cc1nn(C)cc1-c1c(C(=O)N(C)C)cc2cnc(Nc3ccc(N4CC5(CNC5)C4)cn3)nn12 [Example 67] |  | 6.00 to 7.00 |
| COCCOc1ccc(-c2c(C(=O)N(C)C)cc3cnc(Nc4ccc(N5CCC6(CC5)CNC6)cn4)nn23)cc1 [Example 48] |  | > 7.00 |
| COc1cc(F)ccc1-c1c(C(=O)N(C)C)cc2cnc(Nc3ccc(N4CCC5(CC4)CNC5)cn3)nn12 [Example 62] |  | 6.00 to 7.00 |
| CN(C)C(=O)c1cc2cnc(Nc3ccc(N4CCC5(CC4)CNC5)cn3)nn2c1-c1ccncc1 [Example 63] |  | > 7.00 |
| CN(C)C(=O)c1cc2cnc(Nc3ccc(N4CCC5(CC4)CNC5)cn3)nn2c1-c1cnn(C)c1 [Example 64] |  | 6.00 to 7.00 |
